The experiment concerns the target T1, Bromodomain-containing protein 4 [349-460] (Homo sapiens, UniProt O60885).
T1 construct: 349-460
Put plainly: in vitro […] inhibition assay.

Excerpt: Inhibitory activity can be determined routinely using known methods and also from commercial vendors offering this service for kinases and bromodomain proteins. […] The activity of a compound of the invention as an inhibitor of a bromodomain-containing protein, such as a BET protein, such as BRD2, BRD3, BRD4, and/or BRDT, or an isoform or mutant thereof, may be determined in vitro, in vivo, or in a cell line. In vitro assays include assays that determine inhibition of bromodomain-containing proteins. Alternatively, inhibitor binding may be determined by running a competition experiment where a provided compound is incubated with a bromodomain-containing protein, such as a BET protein bound to known ligands, labeled or unlabeled. For example, bromodomain inhibition can be determined in vitro using Alpha Screen Technology (http://www.reactionbiology.com/webapps/site/NewsPDFs/Bromodomain%20Assay%20Platform%20for%20Drug%20Screening%20and%20Discovery.pdf).

For orientation: IC50 means the concentration that inhibits the measured activity by half. `CCOC(=O)c1ccc(-c2csc3c(=O)cc(N4CCSCC4)oc23)cc1` [US10308662, Compound 125] yielded an IC50 of 1870 nM.

Source of the values: BindingDB's records for patent US10308662 (Signal Rx Pharmaceuticals, 2019).
